Assay results: ChEMBL document CHEMBL2203234, “Optimisation of imidazole compounds as selective TAAR1 agonists: discovery of RO5073012” (Bioorg Med Chem Lett, 2012)

Legend:
[1] = biological target: T1, Trace amine-associated receptor 1 (Homo sapiens, UniProt Q96RJ0); test: Displacement of (S)-4-(2,4-difluorophenyl-3-tritio) -4,5-dihydro-2-oxazolamine from human TAAR1 receptor expressed in HEK293 cells after 90 mins by beta counting analysis; type: cell-based
T1 sequence (Q96RJ0 whole entry): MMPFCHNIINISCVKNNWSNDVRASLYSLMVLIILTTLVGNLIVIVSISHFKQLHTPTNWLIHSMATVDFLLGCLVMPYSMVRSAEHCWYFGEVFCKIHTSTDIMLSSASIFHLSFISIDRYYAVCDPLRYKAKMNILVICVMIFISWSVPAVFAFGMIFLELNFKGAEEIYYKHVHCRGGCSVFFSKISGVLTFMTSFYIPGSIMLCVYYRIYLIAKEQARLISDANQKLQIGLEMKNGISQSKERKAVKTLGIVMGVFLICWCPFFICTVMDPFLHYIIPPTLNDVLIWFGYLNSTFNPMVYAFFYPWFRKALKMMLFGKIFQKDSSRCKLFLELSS

[2] = Oral bioavailability in rat at 10 mg/kg; type: ADME, organism-based; conditions: in vivo
[3] = biological target: Beta-1 adrenergic receptor (Homo sapiens) (UniProt P08588); test: Inhibition of human beta 1 adrenergic receptor at 10 uM by CEREP assay
[4] = biological target: C5a anaphylatoxin chemotactic receptor 1 (Homo sapiens) (UniProt P21730); test: Inhibition of human C5a receptor at 10 uM by CEREP assay
Chain of C5a anaphylatoxin chemotactic receptor 1 (Homo sapiens) (P21730 whole entry): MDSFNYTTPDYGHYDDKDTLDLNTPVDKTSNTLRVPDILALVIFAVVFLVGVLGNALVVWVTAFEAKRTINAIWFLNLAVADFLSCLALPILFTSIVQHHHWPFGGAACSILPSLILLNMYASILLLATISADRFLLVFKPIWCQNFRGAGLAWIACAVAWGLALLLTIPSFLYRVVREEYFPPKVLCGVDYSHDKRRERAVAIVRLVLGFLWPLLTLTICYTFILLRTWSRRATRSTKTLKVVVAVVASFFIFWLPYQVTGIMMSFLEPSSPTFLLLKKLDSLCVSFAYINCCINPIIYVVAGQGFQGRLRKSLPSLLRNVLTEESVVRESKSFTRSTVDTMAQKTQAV

[5] = biological target: Adenosine receptor A1 (Homo sapiens) (UniProt P30542); test: Inhibition of human A1 receptor at 10 uM by CEREP assay
Chain of Adenosine receptor A1 (Homo sapiens) (P30542 whole entry): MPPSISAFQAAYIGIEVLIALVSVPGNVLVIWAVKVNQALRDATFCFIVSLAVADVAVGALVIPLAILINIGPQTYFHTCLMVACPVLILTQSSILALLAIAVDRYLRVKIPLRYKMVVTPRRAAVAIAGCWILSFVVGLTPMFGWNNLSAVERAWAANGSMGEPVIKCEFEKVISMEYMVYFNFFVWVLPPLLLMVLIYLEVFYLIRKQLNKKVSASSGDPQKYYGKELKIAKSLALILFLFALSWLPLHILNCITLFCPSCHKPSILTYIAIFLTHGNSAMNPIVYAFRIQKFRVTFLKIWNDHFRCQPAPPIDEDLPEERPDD

[6] = biological target: Cannabinoid receptor 2 (Homo sapiens) (UniProt P34972); test: Inhibition of human CB2 receptor at 10 uM by CEREP assay
Chain of Cannabinoid receptor 2 (Homo sapiens) (P34972 whole entry): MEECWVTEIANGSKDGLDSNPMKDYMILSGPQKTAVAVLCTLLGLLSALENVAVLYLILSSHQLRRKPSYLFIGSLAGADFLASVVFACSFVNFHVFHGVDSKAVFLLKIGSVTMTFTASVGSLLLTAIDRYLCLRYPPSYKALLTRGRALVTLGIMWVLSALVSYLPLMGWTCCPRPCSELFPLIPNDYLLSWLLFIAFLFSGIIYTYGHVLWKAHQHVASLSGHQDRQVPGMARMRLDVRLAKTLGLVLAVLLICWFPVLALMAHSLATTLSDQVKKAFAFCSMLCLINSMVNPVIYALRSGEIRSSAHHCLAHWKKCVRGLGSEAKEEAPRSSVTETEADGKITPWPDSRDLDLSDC

[7] = Inhibition of K-ATP channel at 10 uM by CEREP assay
[8] = biological target: Substance-P receptor (Homo sapiens) (UniProt P25103); test: Inhibition of human Nk1 receptor at 10 uM by CEREP assay
[9] = biological target: C-C chemokine receptor type 1 (Homo sapiens) (UniProt P32246); test: Inhibition of human CCR1 receptor at 10 uM by CEREP assay
Chain of C-C chemokine receptor type 1 (Homo sapiens) (P32246 whole entry): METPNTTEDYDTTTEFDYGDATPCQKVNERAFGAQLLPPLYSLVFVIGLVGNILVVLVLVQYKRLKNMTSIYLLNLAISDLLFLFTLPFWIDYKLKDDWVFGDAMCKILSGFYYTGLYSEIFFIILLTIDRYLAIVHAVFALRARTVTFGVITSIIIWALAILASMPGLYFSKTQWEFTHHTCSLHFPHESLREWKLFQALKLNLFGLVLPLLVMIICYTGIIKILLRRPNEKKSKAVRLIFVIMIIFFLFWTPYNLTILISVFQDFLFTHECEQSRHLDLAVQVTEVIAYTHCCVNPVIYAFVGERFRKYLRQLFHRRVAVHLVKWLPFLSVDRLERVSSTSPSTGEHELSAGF

[10] = biological target: Thyrotropin-releasing hormone receptor (Homo sapiens) (UniProt P34981); test: Inhibition of TRH receptor at 10 uM by CEREP assay
[11] = biological target: Histamine H3 receptor (Homo sapiens) (UniProt Q9Y5N1); test: Inhibition of human H3 receptor at 10 uM by CEREP assay
Chain of Histamine H3 receptor (Homo sapiens) (Q9Y5N1 whole entry): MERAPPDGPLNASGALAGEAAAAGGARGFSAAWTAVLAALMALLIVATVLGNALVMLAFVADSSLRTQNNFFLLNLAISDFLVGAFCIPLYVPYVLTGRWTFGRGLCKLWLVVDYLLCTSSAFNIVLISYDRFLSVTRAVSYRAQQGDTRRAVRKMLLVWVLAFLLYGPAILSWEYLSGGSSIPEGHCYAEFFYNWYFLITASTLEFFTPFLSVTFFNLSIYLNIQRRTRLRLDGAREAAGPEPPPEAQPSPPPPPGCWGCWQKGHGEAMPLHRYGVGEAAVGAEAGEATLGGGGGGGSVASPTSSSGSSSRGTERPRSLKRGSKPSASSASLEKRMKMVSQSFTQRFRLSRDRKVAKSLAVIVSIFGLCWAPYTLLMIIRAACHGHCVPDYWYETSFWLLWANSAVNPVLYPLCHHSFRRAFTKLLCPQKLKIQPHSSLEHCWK

[12] = biological target: cGMP-dependent 3',5'-cyclic phosphodiesterase (Homo sapiens) (UniProt O00408); test: Inhibition of human PDE2 at 10 uM by CEREP assay
Chain of cGMP-dependent 3',5'-cyclic phosphodiesterase (Homo sapiens) (O00408 whole entry): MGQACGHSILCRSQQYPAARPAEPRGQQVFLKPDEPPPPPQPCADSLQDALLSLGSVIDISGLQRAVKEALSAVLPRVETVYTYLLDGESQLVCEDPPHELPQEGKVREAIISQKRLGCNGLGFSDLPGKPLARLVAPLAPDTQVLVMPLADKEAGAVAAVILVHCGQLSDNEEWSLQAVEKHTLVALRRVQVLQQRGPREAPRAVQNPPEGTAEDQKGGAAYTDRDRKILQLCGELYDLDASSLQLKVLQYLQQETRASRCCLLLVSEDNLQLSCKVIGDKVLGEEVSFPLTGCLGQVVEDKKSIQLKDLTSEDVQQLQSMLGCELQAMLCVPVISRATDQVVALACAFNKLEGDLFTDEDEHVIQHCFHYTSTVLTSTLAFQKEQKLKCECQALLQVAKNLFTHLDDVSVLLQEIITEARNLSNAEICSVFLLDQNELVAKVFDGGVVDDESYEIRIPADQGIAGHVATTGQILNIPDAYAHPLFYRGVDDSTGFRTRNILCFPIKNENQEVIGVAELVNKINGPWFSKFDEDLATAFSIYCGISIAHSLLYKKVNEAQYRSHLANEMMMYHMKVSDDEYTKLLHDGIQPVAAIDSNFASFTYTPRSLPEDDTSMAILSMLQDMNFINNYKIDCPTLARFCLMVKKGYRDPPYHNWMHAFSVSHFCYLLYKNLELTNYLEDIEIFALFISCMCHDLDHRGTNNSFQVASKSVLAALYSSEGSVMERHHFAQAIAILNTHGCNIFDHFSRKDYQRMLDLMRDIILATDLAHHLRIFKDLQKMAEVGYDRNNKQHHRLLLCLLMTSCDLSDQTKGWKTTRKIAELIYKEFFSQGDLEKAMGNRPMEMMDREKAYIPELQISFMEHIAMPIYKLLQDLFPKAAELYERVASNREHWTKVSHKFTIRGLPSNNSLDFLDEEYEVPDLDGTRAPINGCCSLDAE

[13] = biological target: Type-1 angiotensin II receptor (Homo sapiens) (UniProt P30556); test: Inhibition of human AT1 receptor at 10 uM by CEREP assay
[14] = Inhibition of ML1 receptor at 10 uM by CEREP assay
[15] = biological target: Calcitonin gene-related peptide type 1 receptor (Homo sapiens) (UniProt Q16602); test: Inhibition of human CGRP receptor at 10 uM by CEREP assay
Chain of Calcitonin gene-related peptide type 1 receptor (Homo sapiens) (Q16602 whole entry): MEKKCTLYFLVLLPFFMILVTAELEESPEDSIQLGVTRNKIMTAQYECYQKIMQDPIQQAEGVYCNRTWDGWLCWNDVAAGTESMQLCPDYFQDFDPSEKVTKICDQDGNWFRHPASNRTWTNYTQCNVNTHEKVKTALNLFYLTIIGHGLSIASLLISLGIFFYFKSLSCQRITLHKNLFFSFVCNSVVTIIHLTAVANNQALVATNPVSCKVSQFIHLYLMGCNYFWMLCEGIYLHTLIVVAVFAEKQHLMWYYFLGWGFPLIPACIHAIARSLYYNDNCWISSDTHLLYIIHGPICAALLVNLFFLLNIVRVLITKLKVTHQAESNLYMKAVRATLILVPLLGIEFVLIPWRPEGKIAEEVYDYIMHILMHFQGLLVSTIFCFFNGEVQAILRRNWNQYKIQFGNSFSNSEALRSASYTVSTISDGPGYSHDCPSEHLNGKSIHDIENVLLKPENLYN

[16] = biological target: 5-hydroxytryptamine receptor 5A (Homo sapiens) (UniProt P47898); test: Inhibition of human 5-HT5A receptor at 10 uM by CEREP assay
[17] = biological target: Thromboxane A2 receptor (Homo sapiens) (UniProt P21731); test: Inhibition of human TXA2/PGH2 receptor at 10 uM by CEREP assay
[18] = biological target: D(1A) dopamine receptor (Homo sapiens) (UniProt P21728); test: Inhibition of human D1 receptor at 10 uM by CEREP assay
[19] = biological target: 5-hydroxytryptamine receptor 1A (Homo sapiens) (UniProt P08908); test: Inhibition of human 5-HT1A receptor at 10 uM by CEREP assay
[20] = biological target: Endothelin-1 receptor (Homo sapiens) (UniProt P25101); test: Inhibition of human ETA receptor at 10 uM by CEREP assay
[21] = biological target: MAO-A (amine oxidase [flavin-containing] A) (Homo sapiens, UniProt P21397); test: Inhibition of human MAO-A at 10 uM by CEREP assay
Chain of MAO-A (amine oxidase [flavin-containing] A) (P21397 whole entry): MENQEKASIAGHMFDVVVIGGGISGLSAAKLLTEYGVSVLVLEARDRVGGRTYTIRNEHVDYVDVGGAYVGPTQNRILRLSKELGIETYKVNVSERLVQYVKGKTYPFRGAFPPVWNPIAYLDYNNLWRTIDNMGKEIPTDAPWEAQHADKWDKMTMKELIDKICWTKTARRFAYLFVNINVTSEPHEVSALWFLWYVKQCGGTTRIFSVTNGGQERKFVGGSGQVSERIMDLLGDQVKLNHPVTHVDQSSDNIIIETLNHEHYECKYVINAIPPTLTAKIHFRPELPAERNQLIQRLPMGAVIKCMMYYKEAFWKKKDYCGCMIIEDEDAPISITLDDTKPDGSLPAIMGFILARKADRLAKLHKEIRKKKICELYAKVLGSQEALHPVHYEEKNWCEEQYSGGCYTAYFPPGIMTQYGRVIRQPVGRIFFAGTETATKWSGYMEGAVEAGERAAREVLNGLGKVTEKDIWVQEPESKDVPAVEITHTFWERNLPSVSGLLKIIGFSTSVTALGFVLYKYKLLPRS

[22] = biological target: Adenosine receptor A3 (Homo sapiens) (UniProt P0DMS8); test: Inhibition of human A3 receptor at 10 uM by CEREP assay
[23] = biological target: Platelet-activating factor receptor (Homo sapiens) (UniProt P25105); test: Inhibition of human PAF receptor at 10 uM by CEREP assay
[24] = biological target: Muscarinic acetylcholine receptor M5 (Homo sapiens) (UniProt P08912); test: Inhibition of human M5 receptor at 10 uM by CEREP assay
[25] = biological target: Sodium-dependent serotonin transporter (Homo sapiens) (UniProt P31645); test: Inhibition of human 5-HT transporter at 10 uM by CEREP assay
[26] = biological target: Growth hormone secretagogue receptor type 1 (Homo sapiens) (UniProt Q92847); test: Inhibition of human Ghrelin receptor at 10 uM by CEREP assay
[27] = organism: Homo sapiens; test: Inhibition of human I2 receptor at 10 uM by CEREP assay
[28] = Inhibition of peripheral BZD receptor at 10 uM by CEREP assay
[29] = organism: Homo sapiens; test: Inhibition of human I1 receptor at 10 uM by CEREP assay
[30] = biological target: Muscarinic acetylcholine receptor M2 (Homo sapiens) (UniProt P08172); test: Inhibition of human M2 receptor at 10 uM by CEREP assay
[31] = biological target: Phosphodiesterase 4 (Homo sapiens) (UniProt P27815+Q08499+Q07343+Q08493); test: Inhibition of human PDE4 at 10 uM by CEREP assay; type: protein assay
[32] = biological target: MAO-B (amine oxidase [flavin-containing] B) (Homo sapiens, UniProt P27338); test: Inhibition of human MAO-B at 10 uM by CEREP assay
[33] = biological target: 5-hydroxytryptamine receptor 6 (Homo sapiens) (UniProt P50406); test: Inhibition of human 5-HT6 receptor at 10 uM by CEREP assay
Chain of 5-hydroxytryptamine receptor 6 (Homo sapiens) (P50406 whole entry): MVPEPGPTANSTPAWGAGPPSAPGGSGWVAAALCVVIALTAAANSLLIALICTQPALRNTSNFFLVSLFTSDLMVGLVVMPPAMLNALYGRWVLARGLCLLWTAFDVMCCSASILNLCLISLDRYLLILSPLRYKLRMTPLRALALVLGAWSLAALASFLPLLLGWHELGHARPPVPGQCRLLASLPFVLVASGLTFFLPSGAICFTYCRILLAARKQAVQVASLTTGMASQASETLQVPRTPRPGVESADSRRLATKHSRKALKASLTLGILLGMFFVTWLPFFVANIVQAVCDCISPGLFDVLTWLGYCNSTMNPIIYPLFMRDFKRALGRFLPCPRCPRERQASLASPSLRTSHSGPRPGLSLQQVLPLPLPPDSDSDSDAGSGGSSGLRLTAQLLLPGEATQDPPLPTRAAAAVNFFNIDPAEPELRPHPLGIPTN

[34] = biological target: Phenylethanolamine N-methyltransferase (Homo sapiens) (UniProt P11086); test: Inhibition of PNMT at 10 uM by CEREP assay
Chain of Phenylethanolamine N-methyltransferase (Homo sapiens) (P11086 whole entry): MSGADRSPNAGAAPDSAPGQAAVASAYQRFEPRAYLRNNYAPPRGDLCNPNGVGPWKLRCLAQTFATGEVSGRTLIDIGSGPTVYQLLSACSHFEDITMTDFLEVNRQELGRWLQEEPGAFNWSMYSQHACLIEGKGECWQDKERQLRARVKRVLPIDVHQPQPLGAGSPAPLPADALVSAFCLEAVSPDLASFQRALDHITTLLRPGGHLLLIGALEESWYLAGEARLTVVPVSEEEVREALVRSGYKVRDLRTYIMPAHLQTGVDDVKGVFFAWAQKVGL

[35] = Inhibition of SKca channel at 10 uM by CEREP assay
[36] = biological target: Histamine H1 receptor (Homo sapiens) (UniProt P35367); test: Inhibition of human H1 receptor at 10 uM by CEREP assay
[37] = biological target: D(1B) dopamine receptor (Homo sapiens) (UniProt P21918); test: Inhibition of human D5 receptor at 10 uM by CEREP assay
[38] = biological target: Cholecystokinin receptor type A (Homo sapiens) (UniProt P32238); test: Inhibition of human CCKA receptor at 10 uM by CEREP assay
Chain of Cholecystokinin receptor type A (Homo sapiens) (P32238 whole entry): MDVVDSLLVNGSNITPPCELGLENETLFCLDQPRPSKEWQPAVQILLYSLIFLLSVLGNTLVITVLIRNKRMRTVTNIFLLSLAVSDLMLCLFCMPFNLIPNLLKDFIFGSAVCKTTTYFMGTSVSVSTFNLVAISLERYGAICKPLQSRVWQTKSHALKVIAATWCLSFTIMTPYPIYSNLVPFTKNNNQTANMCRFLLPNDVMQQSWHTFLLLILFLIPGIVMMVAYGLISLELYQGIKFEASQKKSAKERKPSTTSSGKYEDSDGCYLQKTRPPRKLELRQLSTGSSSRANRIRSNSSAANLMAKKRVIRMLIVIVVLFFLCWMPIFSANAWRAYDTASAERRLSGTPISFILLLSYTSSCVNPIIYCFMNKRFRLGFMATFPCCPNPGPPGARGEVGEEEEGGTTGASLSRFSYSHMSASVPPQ

[39] = Half life in rat at 10 mg/kg, po; type: ADME, organism-based; design: dose 10 mg/kg, route oral; conditions: in vivo

## CCc1cccc(CC)c1Cc1ncc[nH]1
[1]
  Ki: 24 nM
[2]
  bioavailability: 17%
[3]
  inhibition: 5%
[4]
  inhibition: -8%
[5]
  inhibition: 1%
[6]
  inhibition: -4%
[7]
  inhibition: 7%
[8]
  inhibition: 5%
[9]
  inhibition: -1%
[10]
  inhibition: 0%
[11]
  inhibition: 6%
[12]
  inhibition: -5%
[13]
  inhibition: 2%
[14]
  inhibition: 32%
[15]
  inhibition: -5%
[16]
  inhibition: 20%
[17]
  inhibition: 7%
[18]
  inhibition: 8%
[19]
  inhibition: 96%
[20]
  inhibition: -3%
[21]
  inhibition at 10 µM: -4%
[22]
  inhibition: 2%
[23]
  inhibition: -7%
[24]
  inhibition: 8%
[25]
  inhibition: 4%
[26]
  inhibition: 3%
[27]
  inhibition: 59%
[28]
  inhibition: 1%
[29]
  inhibition: 78%
[30]
  inhibition: 36%
[31]
  inhibition: -2%
[32]
  inhibition at 10 µM: 0%
[33]
  inhibition: 9%
[34]
  inhibition: 22%
[35]
  inhibition: 0%
[36]
  inhibition: 1%
[37]
  inhibition: 17%
[38]
  inhibition: 4%
[39]
  half-life: 294 min
